According to patent US20200064333A1, “ECM COMPOSITION, TUMOR MICROENVIRONMENT PLATFORM AND METHODS THEREOF” (MITRA RXDX INDIA PRIVATE LIMITED, priority 2011, published 2020):

Assays:
[1] = test system: Glioblastoma patient tumor tissue; test: "Clinical Response Predictor" explant analysis (M-score), Glioblastoma; assay type: cell-based, human; details: Glioblastoma patient tumor sample, Table 3
Description: (§1) “Clinical Response Predictor” is a patient segregation tool for matching drugs to patients and patients to the drugs in Oncology. “Clinical Response Predictor” explant model is a personalized functional assay that helps predict the response of the patient under investigation to a set of approved drugs for his/her type of cancer. This is done using fresh patient tumor tissue from solid cancers in a specially coated 96/384 well plate. The plates are coated with specific set of Extra Cellular Matix. Further, patient derived autologous ligands are added to the culture. Angiogenic factors are added to maintain tumor vasculature. In case of immunomodulator drugs, autologus immune cells are added to the culture. […] “Clinical Response Predictor” results are measured by both kinetic as well as end-point assays. Cell Viability, Cell death, Cell proliferation, cell metabolism, senescence, tumor morphology are some of the parameters assessed. Each of these parameters is measured by more than one assay. For e.g.: Cell Viability is measured by WST, ATP uptake and Glucose uptake assays. Cell Proliferation and Metabolism is measured by Ki67, PCNA (proliferating nuclear cell antigen), ATP/ADP ratio and Glucose uptake. Cell death is assessed by LDH, Activated Caspase 3, Activated Caspase 8 & Nitric Oxide Synthase and TUNEL. […]

[2] = test system: Glioblastoma, Ca-Ovary, Ca-Breast, Ca-Oesophagus, Ca-Pancreas, Ca-Stomach; test: Clinical outcome of patients (PETCT or CT), other solid cancers; assay type: in vivo, human; details: evaluated at the end of 6-8 months by PETCT or CT
Description: The figure details that the tumor tissue from the patient is analyzed using explant read out, primary Human tumor xenograft readout and then subjected to a variety of genomic and proteomic profiling accompanied by histological analysis and final correlation with patient clinical data for the chemotherapy regimen. All these input parameters together generate the “Clinical Response Predictor”. The integrated preclinical prediction model is designed based on functional “Clinical Response Predictor” screening platform and M Score prompted by it. Tumor tissues are collected from clinics prior to initiation of treatment. Clinical outcome (PERCIST/RECIST) data are collected before and after completion of 3 cycles of chemotherapy (top of the FIG. 1). Concomitantly, after resection/biopsy tumors are treated with same Standards of Care [SOC] or targeted drugs as that received by patients using an “Clinical Response Predictor” driven explants platform. This leads to the extensive functional and molecular characterization (middle of the FIG. 1). […] The combined data from this platform is integrated for determining the M-score and thereafter correlated with PERCIST/RECIST obtained from patient after 3rd to 6th cycle of therapy.
The “Clinical Response Predictor” outcome (M-score) is then compared with clinical outcome.

[3] = test system: Breast Cancer patient tumor tissue; test: "Clinical Response Predictor" explant analysis (M-score), Breast cancer; assay type: cell-based, human; design: key: 0-100 composite M-score from proprietary algorithm
Description: “Clinical Response Predictor” is a patient segregation tool for matching drugs to patients and patients to the drugs in Oncology. “Clinical Response Predictor” explant model is a personalized functional assay that helps predict the response of the patient under investigation to a set of approved drugs for his/her type of cancer. This is done using fresh patient tumor tissue from solid cancers in a specially coated 96/384 well plate. The plates are coated with specific set of Extra Cellular Matix. Further, patient derived autologous ligands are added to the culture. Angiogenic factors are added to maintain tumor vasculature. In case of immunomodulator drugs, autologus immune cells are added to the culture. In the case of haematological malignancies, patient plasma is cultured in the 96/384 well format. The test is carried out in multiplicates to take into account the heterogeneous nature of cancer. “Clinical Response Predictor” results are measured by both kinetic as well as end-point assays. Cell Viability, Cell death, Cell proliferation, cell metabolism, senescence, tumor morphology are some of the parameters assessed. Each of these parameters is measured by more than one assay. For e.g.: Cell Viability is measured by WST, ATP uptake and Glucose uptake assays. Cell Proliferation and Metabolism is measured by Ki67, PCNA (proliferating nuclear cell antigen), ATP/ADP ratio and Glucose uptake. Cell death is assessed by LDH, Activated Caspase 3, Activated Caspase 8 & Nitric Oxide Synthase and TUNEL. Tumor morphology is assessed by H&E to look at the tumor cell content, size of the tumor cells, ratio of viable cells/dead cells, ratio of tumor cells/normal cells, and tumor/macrophage ratio, nuclear size and density and integrity, apoptotic bodies and mitotic figures. Results from each of the assays are expressed in numeric form and is converted using a proprietary algorithm into a single 0-100 metric called “M-score”.
Alternatively, when the tumor source is a xenograft, tumor from mice is excised and further subjected to explant analysis as described below. In another embodiment, the tumor is obtained and is implanted into the mice, thereafter it is allowed to grow, then excised and then subjected to the instant “Clinical Response Predictor” analysis. Post obtaining the, tissue sample, it is divided for obtaining various inputs from a) explant assay, b) Histology based assays like IHC (immunohistochemistry)/H&E, and c) efficacy analysis from primary tumor derived xenografts. • A) Tissue sample given for explant analysis is sliced using Leica Vibratome to generate sections of about 100-3000 μm thickness. These sections are cultured in plates coated with the cancer type specific ECM composition in quadruplicate with media containing autologous sera and also various drugs optionally, for a period of about 48-96 hours. Media with drug and enriched with serum/plasma/PBMCs/serum derived ligands is changed every 24 hours. Post this period MTT/WST analysis is done to assess percent cell viability (end point assay). The supernatant from the media culture is removed every 24 hrs and assessed for proliferation (using ATP and glucose utilization experiments) and cell death (by assessment of lactate dehydrogenase assays and caspase-3 and caspase 8 measurements) to give kinetic response trends. Results are quantified against a drug untreated control. […] The tissue sections both treated and untreated are also given for histological evaluation at the end of the culture period. • B) The tissues given for histological evaluation are assessed for apoptosis by TUNEL and activated caspase 3 assay. Also cell proliferation is assayed for standard proliferation markers like Ki67.

[4] = test system: Colon Cancer patient tumor tissue; test: "Clinical Response Predictor" explant analysis (M-score), Colon / Colorectum cancer; assay type: cell-based, human
Description: “Clinical Response Predictor” is a patient segregation tool for matching drugs to patients and patients to the drugs in Oncology. “Clinical Response Predictor” explant model is a personalized functional assay that helps predict the response of the patient under investigation to a set of approved drugs for his/her type of cancer. This is done using fresh patient tumor tissue from solid cancers in a specially coated 96/384 well plate. The plates are coated with specific set of Extra Cellular Matix. Further, patient derived autologous ligands are added to the culture. Angiogenic factors are added to maintain tumor vasculature. In case of immunomodulator drugs, autologus immune cells are added to the culture. In the case of haematological malignancies, patient plasma is cultured in the 96/384 well format. The test is carried out in multiplicates to take into account the heterogeneous nature of cancer. “Clinical Response Predictor” results are measured by both kinetic as well as end-point assays. Cell Viability, Cell death, Cell proliferation, cell metabolism, senescence, tumor morphology are some of the parameters assessed. Each of these parameters is measured by more than one assay. For e.g.: Cell Viability is measured by WST, ATP uptake and Glucose uptake assays. Cell Proliferation and Metabolism is measured by Ki67, PCNA (proliferating nuclear cell antigen), ATP/ADP ratio and Glucose uptake. Cell death is assessed by LDH, Activated Caspase 3, Activated Caspase 8 & Nitric Oxide Synthase and TUNEL. Tumor morphology is assessed by H&E to look at the tumor cell content, size of the tumor cells, ratio of viable cells/dead cells, ratio of tumor cells/normal cells, and tumor/macrophage ratio, nuclear size and density and integrity, apoptotic bodies and mitotic figures. […]
Alternatively, when the tumor source is a xenograft, tumor from mice is excised and further subjected to explant analysis as described below. […] Results are quantified against a drug untreated control. […]

[5] = test system: Pancreatic Cancer patient tumor tissue; test: "Clinical Response Predictor" explant analysis (M-score), Pancreatic cancer; assay type: cell-based, human
Description: as §1

[6] = test system: Ovary Cancer patient tumor tissue; test: "Clinical Response Predictor" explant analysis (M-score), Ovary cancer; assay type: cell-based, human
Description: as §1

[7] = test system: Liver Cancer patient tumor tissue; test: "Clinical Response Predictor" explant analysis (M-score), Liver cancer; assay type: cell-based, human; details: for M-Score: liver
Description: “Clinical Response Predictor” is a patient segregation tool for matching drugs to patients and patients to the drugs in Oncology. “Clinical Response Predictor” explant model is a personalized functional assay that helps predict the response of the patient under investigation to a set of approved drugs for his/her type of cancer. This is done using fresh patient tumor tissue from solid cancers in a specially coated 96/384 well plate. The plates are coated with specific set of Extra Cellular Matix. Further, patient derived autologous ligands are added to the culture. Angiogenic factors are added to maintain tumor vasculature. In case of immunomodulator drugs, autologus immune cells are added to the culture. In the case of haematological malignancies, patient plasma is cultured in the 96/384 well format. The test is carried out in multiplicates to take into account the heterogeneous nature of cancer. “Clinical Response Predictor” results are measured by both kinetic as well as end-point assays. Cell Viability, Cell death, Cell proliferation, cell metabolism, senescence, tumor morphology are some of the parameters assessed. Each of these parameters is measured by more than one assay. For e.g.: Cell Viability is measured by WST, ATP uptake and Glucose uptake assays. Cell Proliferation and Metabolism is measured by Ki67, PCNA (proliferating nuclear cell antigen), ATP/ADP ratio and Glucose uptake. Cell death is assessed by LDH, Activated Caspase 3, Activated Caspase 8 & Nitric Oxide Synthase and TUNEL. Tumor morphology is assessed by H&E to look at the tumor cell content, size of the tumor cells, ratio of viable cells/dead cells, ratio of tumor cells/normal cells, and tumor/macrophage ratio, nuclear size and density and integrity, apoptotic bodies and mitotic figures. Results from each of the assays are expressed in numeric form and is converted using a proprietary algorithm into a single 0-100 metric called “M-score”. […]
Alternatively, when the tumor source is a xenograft, tumor from mice is excised and further subjected to explant analysis as described below. […] The supernatant from the media culture is removed every 24 hrs and assessed for proliferation (using ATP and glucose utilization experiments) and cell death (by assessment of lactate dehydrogenase assays and caspase-3 and caspase 8 measurements) to give kinetic response trends. Results are quantified against a drug untreated control. […] The tissue sections both treated and untreated are also given for histological evaluation at the end of the culture period. • B) The tissues given for histological evaluation are assessed for apoptosis by TUNEL and activated caspase 3 assay. […]

[8] = test system: Stomach Cancer patient tumor tissue; test: "Clinical Response Predictor" explant analysis (M-score), Stomach cancer; assay type: cell-based, human
Description: as §1

[9] = test system: Head and Neck Cancer patient tumor tissue; test: "Clinical Response Predictor" explant analysis (M-score / Sensitivity Index), Head and Neck cancer; assay type: cell-based, human; details: Right pyriform sinus
Description: as §1

[10] = Example 13.11: patient, Breast Cancer, Regional Lymph node (R) Breast, T3N1M0, metastasis and recc
[11] = Example 13.14: patient, T4N0M0, primary

`Cn1nnc2c(C(N)=O)ncn2c1=O` [Temozolomide] was tested, and the “Sensitivity Index” value [1] was 49 and the “Clinical readout RECIST” value ([2]; Glioblastoma patient) was 2.
`Nc1ccn([C@@H]2O[C@H](CO)[C@@H](O)C2(F)F)c(=O)n1` [Gemcitabine] gave a M-Score [3, 10] of 21.
Avastin gave a M-Score ([3]; Example 13.18: patient, Breast Cancer with mets, Regional lymph node (Rt Br), T3N1M1, recurrent) of 18, a M-Score ([3]; Example 13.19: patient, Breast Cancer with SCLN mets, supraclaviculus lymph node, TXNXM2, metastatic) of 14 and a M-Score ([4]; Example 13.15: patient, Colorectum Cancer, perineal mass, T3N0M0, recurrent) of 20.
With Panitumumab the M-Score ([4]; Example 13.3: patient, Colon Cancer, rectosigmoid colon, Stage IV, metastasis) was 19 and the M-Score ([4]; Example 13.4: patient, Colon Cancer, perineal mass (Ca-Rectum), T3N0M0, Recc) was 27.
`CC(=O)O[C@H]1C(=O)[C@@]2(C)[C@H]([C@H](OC(=O)c3ccccc3)[C@]3(O)C[C@H](OC(=O)[C@H](O)[C@@H](NC(=O)c4ccccc4)c4ccccc4)C(C)=C1C3(C)C)[C@]1(OC(C)=O)CO[C@@H]1C[C@@H]2O` [Paclitaxel] showed a M-Score [3, 10] of 11.
For `C#Cc1cccc(Nc2ncnc3cc(OCCOC)c(OCCOC)cc23)c1` [Erlotinib], the M-Score ([5]; Example 13.7: patient, tumor site liver, metastasis) was 21 and the M-Score ([5]; Example 13.8: patient, pancreas, T2N0M0, primary) was 14.
In the case of `CCCCCOC(=O)Nc1nc(=O)n([C@@H]2O[C@H](C)[C@@H](O)[C@H]2O)cc1F` [Capecitabine], the M-Score [3, 10] is reported as 26.
For `CC(=O)O[C@@]12CO[C@@H]1C[C@H](O)[C@@]1(C)C(=O)[C@H](O)C3=C(C)[C@@H](OC(=O)[C@H](O)[C@@H](NC(=O)OC(C)(C)C)c4ccccc4)C[C@@](O)([C@@H](OC(=O)c4ccccc4)[C@H]21)C3(C)C` [Docetaxel], the M-Score ([6]; Example 13.10: patient, primary) was 19, the M-Score ([6]; Example 13.9: patient, metastasis) was 26 and the M-Score [3, 10] was 26.
`CNC(=O)c1cc(Oc2ccc(NC(=O)Nc3ccc(Cl)c(C(F)(F)F)c3)cc2)ccn1` [Sorafenib] was tested, and the “"Clinical Response Predictor" analysis suggestion” value ([7]; Example 13.13: patient, T3NxM1, metastasis) was “not an optimal therapeutic option”, the M-Score ([7]; Example 13.13: patient, T3N×M1, metastasis) was 16 and the “"Clinical Response Predictor" analysis suggestion” value [7, 11] was “an optimal therapeutic option”. The M-Score [7, 11] was 46.
With `CC(C)(C#N)c1cc(Cn2cncn2)cc(C(C)(C)C#N)c1` [Anastrozole] the M-Score [3, 10] was 20.
`CCC1=C[C@@H]2CN(C1)Cc1c([nH]c3ccccc13)[C@@](C(=O)OC)(c1cc3c(cc1OC)N(C)[C@H]1[C@@](O)(C(=O)OC)[C@H](OC(C)=O)[C@]4(CC)C=CCN5CC[C@]31[C@@H]54)C2` [Vinorelbine] was tested, and the M-Score [3, 10] was 19 and the “Clinical readout RECIST” value ([2]; Ca-Breast patients) was 2.
`CCN(CC)CCNC(=O)c1c(C)[nH]c(/C=C2\C(=O)Nc3ccc(F)cc32)c1C` [Sunitinib] gave a M-Score ([8]; Example 13.5: patient, pylorus of stomach, metastatic lymph node recc) of 25 and a M-Score ([8]; Example 13.6: patient, stomach, recc) of 09.
`COc1cccc2c1C(=O)c1c(O)c3c(c(O)c1C2=O)C[C@@](O)(C(=O)CO)C[C@@H]3O[C@H]1C[C@H](N)[C@H](O)[C@H](C)O1` [Doxorubicin] was tested, and the M-Score [3, 10] was 17.
For `N.N.[Cl][Pt][Cl]` [Cisplatin], the M-Score ([9]; Example 13.1: patient, T3N0M0, primary) was 64 and the M-Score ([9]; Example 13.2: patient, T3/4N2cM0, metastatic lymph node) was 39.
